Columns and labels:
[1] = target: Syk kinase (Homo sapiens, UniProt P43405); assay: SYK Enzymatic Assay (Z-LYTE Tyr 2 peptide); assay type: biochemical; conditions: 8 concentrations 1 μM down to 0.0003 μM
In short: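 Z-LYTE format using Tyr 2 peptide. After the 1 h room-temperature kinase reaction, development reagent was added for 1 h, then stop reagent. Fluorescence was read at 445 and 520 nm. Compounds were tested at 8 concentrations, 1 μM down to 0.0003 μM (1:3 dilutions).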

[2] = system: RBL-2H3 cells; assay: IgE-induced Beta-hexosaminidase secretion in RBL-2H3 cells; assay type: cell-based; conditions: Rattus norvegicus, RBL-2H3, IgE-induced Beta-hexosaminidase secretion, DNP-BSA stimulation
In short: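 RBL-2H3 cells sensitized overnight with 0.5 ug/ml SPE-7 IgE, washed, preincubated with compound 20 min at 37° C, then stimulated with DNP-BSA (150 ng/mL stock) for 45 min. Released β-hexosaminidase measured on supernatant with 1 mM 4-nitrophenyl N-acetyl-β-D-glucosaminide, pH 4.5, 1.5 hr at 37° C; absorbance 405 nm after carbonate quench.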

An IC50 [1] of 27 nM and an IC50 [2] of 64 nM were found for `CC(=O)N1CCC(c2ccc(-c3cc4nccnc4c(OC[C@@H]4CN(S(C)(=O)=O)CCO4)n3)cc2)CC1` [Compound 33] in this work.

An IC50 [1] of 33 nM and an IC50 [2] of 26 nM were found for `CS(=O)(=O)N1CCN(c2ccc(-c3cc4nccnc4c(O[C@@H]4CCOC4)n3)cc2)CC1` [Compound 153] in this work.

An IC50 [1] of 31 nM and an IC50 [2] of 990 nM were found for `CS(=O)(=O)N1CCO[C@H](COc2nc(-c3ccc(C4CCN(CCO)CC4)cc3)cc3nccnc23)C1` [Compound 58, (S)-2-(4-(4-(5-((4-(methylsulfonyl)morpholin-2-yl)methoxy)pyrido[3,4-b]pyrazin-7-yl)phenyl)piperidin-1-yl)ethanol] in this work.

An IC50 [1] of 17 nM and an IC50 [2] of 57 nM were found for `CN1CCCc2cc(-c3cc4nccnc4c(OC[C@@H]4CN(C(N)=O)CCO4)n3)ccc21` [Compound 209] in this work.

An IC50 [1] of 66 nM and an IC50 [2] of 143 nM were found for `Fc1cc(-c2cc3nccnc3c(O[C@@H]3CCOC3)n2)ccc1N1CCOCC1` [Compound 193] in this work.

An IC50 [1] of 61 nM and an IC50 [2] of 41 nM were found for `Cn1ccc2ccc(-c3cc4nccnc4c(OC[C@@H]4CN(S(C)(=O)=O)CCO4)n3)cc21` [Compound 120] in this work.

An IC50 [1] of 58 nM and an IC50 [2] of 88 nM were found for `CC(=O)N1CCO[C@H](COc2nc(-c3ccc4c(c3)COC4(C)C)cc3nccnc23)C1` [Compound 297] in this work.

An IC50 [1] of 84 nM and an IC50 [2] of 105 nM were found for `CCc1ccc(-c2cc3nccnc3c(OC[C@@H]3CN(C(=O)NC)CCO3)n2)cc1` [Compound 222] in this work.

An IC50 [1] of 14 nM and an IC50 [2] of 82 nM were found for `CS(=O)(=O)N1CCC(c2ccc(-c3cc4nccnc4c(OC[C@@H]4CN(S(C)(=O)=O)CCO4)n3)cc2)CC1` [Compound 57, (S)-4-(methylsulfonyl)-2-((7-(4-(1-(methylsulfonyl)piperidin-4-yl)phenyl)pyrido[4,3-b]pyrazin-5-yloxy)methyl)morpholine] in this work.

An IC50 [1] of 52 nM and an IC50 [2] of 418 nM were found for `CS(=O)(=O)N1CCC(c2ccc(-c3cc4nccnc4c(OC[C@@H]4CNC(=O)C4)n3)cc2)CC1` [Compound 261, (S)-4-(((7-(4-(1-(methylsulfonyl)piperidin-4-yl)phenyl)pyrido[3,4-b]pyrazin-5-yl)oxy)methyl)pyrrolidin-2-one] in this work.

An IC50 [1] of 88 nM and an IC50 [2] of 166 nM were found for `CC(=O)N1CCO[C@H](COc2nc(-c3ccc(C(C)(C)O)cc3)cc3nccnc23)C1` [Compound 265] in this work.

An IC50 [1] of 28 nM and an IC50 [2] of 45 nM were found for `CNC(=O)N1CCO[C@H](COc2nc(-c3ccc(N(C)C)cc3)cc3nccnc23)C1` [Compound 137] in this work.
